The values below are quoted from earlier work in patent publication US20120275998A1, “BIODEGRADABLE STENT COMPRISING AN ACID SCAVENGING AGENT” (priority 2009, published 2012).

For `OCCN(CCO)c1nc(N2CCCCC2)c2nc(N(CCO)CCO)nc(N3CCCCC3)c2n1` [Dipyridamole, 2,6-bis(dithioethanolamino)-4,8-dipiperidinopyrimido(5,4-d)pyrimidine], the “Soluble (solvents)” value (solvents in which the substance is soluble) was “Ethanol, dimethyl sulfoxide”. Moreover, the Water solubility result (water) is listed as “slightly soluble in water”.
